Molecular target: T1, STING (Homo sapiens, UniProt Q86WV6, G230A/H232R/R293Q/R71H)
T1 construct: host or cells: THP1-Dual KO-IFNAR2 cells
Assay: STING reporter assay: luciferase reporter activity in THP1-Dual KO-IFNAR2 cells stimulated with 2′3′cGAMP
Type: cell-based
Conditions: 15 μM 2′3′cGAMP, 24h, read-out: hSTING EC50
In short: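 THP1-Dual KO-IFNAR2 cells (2×10E6 cells/mL) were exposed to compounds at 0.0017-100 μM, then stimulated with 2′3′cGAMP (15 μM final) transfected via Lipofectamine 2000. After 24h at 37° C., secreted luciferase in supernatant was read by QUANTI-Luc luminescence; EC50 derived from concentration-response.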

T1 sequence (Q86WV6 whole entry R71H/G230A/H232R/R293Q): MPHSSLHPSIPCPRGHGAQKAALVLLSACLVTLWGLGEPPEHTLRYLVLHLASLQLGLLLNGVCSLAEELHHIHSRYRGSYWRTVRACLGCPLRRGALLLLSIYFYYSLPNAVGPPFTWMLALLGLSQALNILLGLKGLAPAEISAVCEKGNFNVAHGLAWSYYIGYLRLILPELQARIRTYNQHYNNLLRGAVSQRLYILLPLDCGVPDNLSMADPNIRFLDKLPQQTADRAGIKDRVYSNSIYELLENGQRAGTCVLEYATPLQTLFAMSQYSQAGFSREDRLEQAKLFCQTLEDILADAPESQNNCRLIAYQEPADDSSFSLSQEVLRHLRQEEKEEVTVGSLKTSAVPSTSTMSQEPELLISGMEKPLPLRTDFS

| SMILES | EC50 [nM] |
| --- | --- |
| CC(=O)Nc1c[nH]c2ccc(-c3cnn(Cc4cccc(C(F)(F)F)c4)c3)cc12 [Compound 180, N-(5-(1-(3-(trifluoromethyl)benzyl)-1H-pyrazol-4-yl)-1H-indol-3-yl)acetamide] | 200 to 1000 |
| CCC(=O)Nc1c[nH]c2ccc(-c3ccc(-c4cnn(C(C)C)c4)cc3)cc12 [Compound 118, N-(5-(4-(1-isopropyl-1H-pyrazol-4-yl)phenyl)-1H-indol-3-yl)propionamide] | 1000 to 5000 |
| O=C(Nc1c[nH]c2ccc(-c3cnn(-c4ccc(C(F)(F)F)cc4)c3)cc12)C1CC1(F)F (centres unmarked) [Compound 239, 2,2-difluoro-N-(5-(1-(4-(trifluoromethyl)phenyl)-1H-pyrazol-4-yl)-1H-indol-3-yl)cyclopropane-1-carboxamide] | 200 to 1000 |
| O=C(Nc1c[nH]c2ccc(-c3cnn(Cc4ccc(C(F)(F)F)cc4)c3)cc12)C1CCC1 [Compound 258, N-(5-(1-(4-(trifluoromethyl)benzyl)-1H-pyrazol-4-yl)-1H-indol-3-yl)cyclobutanecarboxamide] | 40 to 200 |
| CCC(=O)Nc1c[nH]c2ccc(-c3cccc(C4CC4)c3)cc12 [Compound 146, N-(5-(3-cyclopropylphenyl)-1H-indol-3-yl)propionamide] | 1000 to 5000 |
| Cn1ccc(C(=O)Nc2c[nH]c3ccc(-c4cnn(-c5ccc(C(F)(F)F)cc5)c4)cc23)n1 [Compound 276, 1-methyl-N-(5-(1-(4-(trifluoromethyl)phenyl)-1H-pyrazol-4-yl)-1H-indol-3-yl)-1H-pyrazole-3-carboxamide] | 200 to 1000 |
| CCC(=O)Nc1c[nH]c2ccc(-c3cccc(COC)c3)cc12 [Compound 145, N-(5-(3-(methoxymethyl)phenyl)-1H-indol-3-yl)propionamide] | 5000 to 100000 |
| O=C(Nc1c[nH]c2ccc(-c3cnn(-c4ccc(C(F)(F)F)cc4)c3)cc12)C1(C(F)(F)F)CC1 [Compound 238, 1-(trifluoromethyl)-N-(5-(1-(4-(trifluoromethyl)phenyl)-1H-pyrazol-4-yl)-1H-indol-3-yl)cyclopropane-1-carboxamide] | 1000 to 5000 |
| CCC(=O)Nc1c[nH]c2ccc(-c3cnn(-c4ccc(OCC(F)(F)F)cc4)c3)cc12 [Compound 110, N-(5-(1-(4-(2,2,2-trifluoroethoxy)phenyl)-1H-pyrazol-4-yl)-1H-indol-3-yl)propionamide] | 40 to 200 |
| CCC(=O)Nc1c[nH]c2ccc(-c3ccn(-c4ccc(C(F)(F)F)cc4)n3)cc12 [Compound 117, N-(5-(1-(4-(trifluoromethyl)phenyl)-1H-pyrazol-3-yl)-1H-indol-3-yl)propionamide] | 1000 to 5000 |
| CCC(=O)Nc1c[nH]c2ccc(-c3cnn(-c4cnc(CC)cn4)c3)cc12 [Compound 248, N-(5-(1-(5-ethylpyrazin-2-yl)-1H-pyrazol-4-yl)-1H-indol-3-yl)propionamide] | 1000 to 5000 |
| O=C1CCC[C@@H](C(=O)Nc2c[nH]c3ccc(-c4cnn(-c5ccc(C(F)(F)F)cc5)c4)cc23)N1 [Compound 221, (S)-6-oxo-N-(5-(1-(4-(trifluoromethyl)phenyl)-1H-pyrazol-4-yl)-1H-indol-3-yl)piperidine-2-carboxamide] | 1000 to 5000 |
| CC(=O)Nc1c[nH]c2ccc(-c3cnn(C(C)c4ccc(C(F)(F)F)cc4)c3)cc12 (centres unmarked) [Compound 178, N-(5-(1-(1-(4-(trifluoromethyl)phenyl)ethyl)-1H-pyrazol-4-yl)-1H-indol-3-yl)acetamide] | 200 to 1000 |
| O=C(Nc1c[nH]c2ccc(-c3cnn(-c4ccc(C(F)(F)F)cc4)c3)cc12)C1CN(CC(F)(F)F)C1 [Compound 247, 1-(2,2,2-trifluoroethyl)-N-(5-(1-(4-(trifluoromethyl)phenyl)-1H-pyrazol-4-yl)-1H-indol-3-yl)azetidine-3-carboxamide] | 200 to 1000 |

From patent US20230365553A1, “COMPOUNDS AND COMPOSITIONS FOR TREATING CONDITIONS ASSOCIATED WITH STING ACTIVITY” (IFM Due, Inc., priority 2020, published 2023)
